Numbers after ± are expanded uncertainties.
How the values were obtained:
[1] = 101 kPa, Liquid; for viscosity: Capillary tube (Ostwald / Ubbelohde) method; for speed of sound: Sing-around technique in a fixed-path interferometer
[2] = xn = mol fraction of the nth substance listed; details: 101 kPa, Liquid, x2 = 0; for viscosity: Capillary tube (Ostwald / Ubbelohde) method; for speed of sound: Sing-around technique in a fixed-path interferometer

Structure (SMILES) | mass density ([1]; 298.15 K) | viscosity ([1]; 298.15 K) | speed of sound ([1]; 298.15 K) | mass density ([1]; 303.15 K) | speed of sound ([1]; 303.15 K) | mass density ([1]; 308.15 K) | speed of sound ([1]; 308.15 K) | viscosity ([2]; 298.15 K) | speed of sound ([2]; 298.15 K) | mass density ([2]; 298.15 K) | speed of sound ([2]; 303.15 K) | mass density ([2]; 303.15 K) | speed of sound ([2]; 308.15 K) | mass density ([2]; 308.15 K)
CCCCCCCCCC [decane] | 726.806 ± 1.7 kg/m3 | 0.852 ± 0.015 mPa·s | 1234.8 ± 3.1 m/s | 723.042 ± 1.7 kg/m3 | 1215.2 ± 3.1 m/s | 719.23 ± 1.7 kg/m3 | 1195.6 ± 3.1 m/s |  |  |  |  |  |  | 
CCCCCCCCCC [decane] + CCCCCCCCO |  |  |  |  |  |  |  | 0.852 ± 0.015 mPa·s | 1234.8 ± 3.1 m/s | 726.806 ± 1.7 kg/m3 | 1215.2 ± 3.1 m/s | 723.042 ± 1.7 kg/m3 | 1195.6 ± 3.1 m/s | 719.23 ± 1.7 kg/m3
CCCCCC [hexane] | 655.072 ± 0.92 kg/m3 | 0.313 ± 0.007 mPa·s | 1077.8 ± 1.2 m/s | 650.369 ± 0.92 kg/m3 | 1055.2 ± 1.2 m/s | 645.767 ± 0.93 kg/m3 | 1032.9 ± 1.1 m/s |  |  |  |  |  |  | 
CCCCCC [hexane] + CCCCCCCCO |  |  |  |  |  |  |  | 0.313 ± 0.007 mPa·s | 1077.8 ± 1.2 m/s | 655.072 ± 0.92 kg/m3 | 1055.2 ± 1.2 m/s | 650.369 ± 0.92 kg/m3 | 1032.9 ± 1.1 m/s | 645.767 ± 0.93 kg/m3
CCCCCCCCO [octan-1-ol] | 821.813 ± 0.54 kg/m3 | 7.508 ± 0.042 mPa·s | 1348 ± 0.8 m/s | 818.796 ± 0.54 kg/m3 | 1330.8 ± 0.8 m/s | 815.286 ± 0.55 kg/m3 | 1314.1 ± 0.8 m/s |  |  |  |  |  |  | 
CCCCCCCC [octane] | 698.58 ± 0.77 kg/m3 | 0.518 ± 0.007 mPa·s | 1172.7 ± 0.8 m/s | 694.497 ± 0.78 kg/m3 | 1152.1 ± 0.8 m/s | 690.416 ± 0.78 kg/m3 | 1131.7 ± 0.8 m/s |  |  |  |  |  |  | 
CCCCCCCC [octane] + CCCCCCCCO |  |  |  |  |  |  |  | 0.518 ± 0.007 mPa·s | 1172.7 ± 0.8 m/s | 698.58 ± 0.77 kg/m3 | 1152.1 ± 0.8 m/s | 694.497 ± 0.78 kg/m3 | 1131.7 ± 0.8 m/s | 690.416 ± 0.78 kg/m3

Source: the NIST ThermoML archive (doi:10.1016/j.jct.2008.02.005)
